Melting point data for 86 compounds are collected here from a melting point compilation (Tetko et al.; mined from patent text by program, amines drawn as free bases though some values may be those of a salt).

The structures appear in SMILES notation.

The melting point is the temperature of the solid-liquid transition. Regarding `COCc1ccc(C(=O)NCC#N)cc1`, the melting point was 107 to 108 °C.

For the compound `CC(C)CC(NS(=O)(=O)c1cccc2ccccc12)C(=O)NC(C(C)C)C(O)c1c(-c2ccccc2)c1=O` (stereo unspecified), the melting point fell in the range of 109 to 115 °C.

`CC1(C)CC(OC(=O)CCCCCNC(=O)OC2CC(C)(C)NC(C)(C)C2)CC(C)(C)N1` returned a melting point of 59 to 62 °C.

In turn, `COc1ccc2[nH]c(C(=O)Nc3cc(NC(=O)OCc4ccccc4)c4ccccc4c3CCOC(C)=O)cc2c1` yielded a melting point of 98 to 110 °C.

Regarding `COCCOc1cc2ncnc(NC3=CC(=O)C(N(C)C4CCCCC4)=CC3=O)c2cc1OC`, the melting point lay in the range of 178 to 180 °C.

As to `O=C(CC(=O)C1CC1)c1cccnn1`, the melting point was 85 to 87 °C.

Turning to `CN(c1cccc2cc(-c3nccs3)[nH]c12)S(=O)(=O)c1ccsc1C(=O)O`, the melting point amounted to 225 °C.

`CCOC(=O)CC(NC(=O)CNC(=O)c1csc(N=C2NCCN2)n1)c1cccnc1` (racemic) came in with a melting point of 198 to 199 °C.

In the case of `O=C(Nc1cccc2c(=O)cc(-c3nnn[nH]3)oc12)c1ccc2c(c1)CC(COCc1ccc(F)cc1)O2` (stereo unspecified), the melting point fell in the range of 229 to 232 °C.

As for `Cc1cc(O)ccc1C(=O)N1CCN(C)CC1`, the melting point was 167 to 168 °C.

`CCS(=O)(=O)c1ccc(-c2nc(-c3nc4cc(OC)cc(OC)c4c(=O)[nH]3)ccc2OCCO)cc1`: the melting point fell in the range of 282 to 284 °C.

In turn, `Cc1noc(CC(=O)Nc2ccccc2Cl)n1` showed a melting point of 118 to 120 °C.

For the compound `COc1ccccc1N1CCN(C(=O)Nc2cc(C(C)=O)c(C)nc2OC)CC1`, the melting point was in the range of 153 to 154 °C.

`OC(=S)CC(c1ccc(OCc2ccc3ccccc3n2)cc1)c1ccc(OCc2ccc3ccccc3n2)cc1` showed a melting point of 175 to 180 °C.

As to `CCN1C[C@H](CN2CCN(C(c3ccccc3)c3ccccc3)CC2)C[C@@H]2c3cccc4[nH]cc(c34)C[C@H]21`, the melting point lay within 203 to 205 °C.

In the case of `CN1C(=O)CC(c2ccccc2)C1C(O)c1ccc(Br)s1` (stereo unspecified), the melting point came out at 105 °C.

`CN1CCCCC1COC(=O)c1c[nH]c2ccccc12` (stereo unspecified) displayed a melting point of 168 to 170 °C.

In turn, `COC(=O)NC(=N)N(C(=O)OC)c1c(Cc2ccccc2)c[nH]c1C(=O)OC` had a melting point of 158 to 160 °C.

With `FC(F)(F)c1ccc2nc(N3CCN(c4ccncc4C(F)(F)F)CC3)[nH]c2c1`, the melting point fell in the range of 220 to 224 °C.

`O=C(NC1N=C(c2ccccc2)c2ccccc2NC1=O)c1c[nH]c2ccccc12` (racemic) displayed a melting point of 265 to 268 °C.

Compound `C=CCc1cc(C#CC2(O)CN3CCC2CC3)ccc1OCC(=O)OCC` (stereo unspecified) displayed a melting point of 95.9 °C.

In the case of `Nc1ccc2c(CCl)cc(O)nc2n1`, the melting point was over 280 °C.

The compound `CC(CN1CC(=O)N(CN2CCN(C)CC2)C(=O)C1)N1CC(=O)N(CN2CCN(C)CC2)C(=O)C1` (stereo unspecified) registered a melting point of 93 to 96 °C.

`O=C(Cc1ccc(Br)cn1)Nc1ccccn1` gave a melting point of 131 °C.

`COC(=O)c1cc(C#CC2(c3ccc(OC)c(OC4CCCC4)c3)CCC(=O)CC2)cc(C(=O)OC)c1` showed a melting point of 134 to 135 °C.

As for `O=c1ccsn1Cc1ccccc1`, the melting point was 78 to 80 °C.

Regarding `Cn1c(-c2ccc(C(=O)O)cc2)cc2cc3c(cc21)C(C)(C)CCC3(C)C`, the melting point was in the range of 288 to 289 °C.

In turn, `C=CCOCC(CC)(COCC=C)C(NC(=O)c1ccc(Cl)cc1)NC(=N[N+](=O)[O-])Nc1cccnc1` (stereo unspecified) showed a melting point of 175 to 180 °C.

As to `Cc1cc2c3c(ccc2cc1Br)OC(=O)C3(C)C`, the melting point was 187 to 189 °C.

Consider `CNC(=S)NS(=O)(=O)c1cc(CCNC(=O)/C=C/c2cccs2)ccc1-c1ccco1`, for which the melting point fell in the range of 175 to 176 °C.

On to `C=CC=CCC1CC(NC(=O)C(F)(F)F)C(O)C(C)O1` (stereo unspecified), for which the melting point lay in the range of 111 to 112 °C.

As to `CCCCCCCCc1ccc(N(c2ccc(CCCCCCCC)cc2)C2(c3c(C)n(CC)c4ccccc34)OC(=O)c3ccccc32)cc1` (stereo unspecified), the melting point is 106 to 108 °C.

Consider `COC(=O)C(=O)c1ccc(OCCOc2ccc3ccccc3c2)c([N+](=O)[O-])c1`, for which the melting point was 127 to 129 °C.

As to `O=[N+]([O-])c1c(Cl)cc(Cl)cc1CO`, the melting point is 133 to 134 °C.

Consider `CC(C)N1C(=O)c2cncnc2Nc2ccccc21`, for which the melting point is 204 to 206 °C.

`CN1Cc2c(C#N)ccc3scc(c23)S1(=O)=O` gave a melting point of 238 °C.

Compound `COC(=O)c1cc2c3ccccc3nc(C)n2n1` had a melting point of 155 to 156 °C.

Take `CCOP(=O)(OCC)SCc1ccc(-c2nc(S)c3cc(Br)ccc3n2)cc1`: the melting point fell in the range of 196 to 199 °C.

`CCCCc1nc([N+](=O)[O-])c(CO)n1Cc1ccc(-c2ccccc2C(=O)O)cc1` showed a melting point of 204 to 206 °C.

`Cc1nc2cc(Cl)cc(Cl)c2o1` came in with a melting point of 110 to 113 °C.

`CCCCCCc1ccc(-c2ccc(-c3ccc(CCCCC)cc3)c(F)c2)s1` came in with a melting point of 44 °C.

On to `CC(C)(C)c1ccc(-c2nnc(N)nc2N)cc1`, for which the melting point is 275 to 276 °C.

`COc1ccc(CC#N)c(C)c1OC` came in with a melting point of 60 to 63 °C.

On to `Nc1nc2c(sc(=O)n2C2OC(COC(=O)c3ccccc3)C(OC(=O)c3ccccc3)C2OC(=O)c2ccccc2)c(=O)[nH]1` (stereo unspecified), for which the melting point lay within 248 to 250 °C.

In turn, `CCCCCCCCCCCCSC(=S)SSC(=S)SCCCCCCCCCCCC` gave a melting point of 33 to 35 °C.

For the compound `CCOC(=S)Cc1nc2ccccc2s1`, the melting point lay within 45 to 48 °C.

Take `O=CN1CC2CC1CN2c1cc2c(cc1F)c(=O)c(C(=O)O)cn2-c1ccc(F)cc1` (stereo unspecified): the melting point lay in the range of 274 to 276 °C.

The compound `CCC(CC)(c1ccc(F)cc1F)c1c[nH]c2c(NS(C)(=O)=O)cccc12` showed a melting point of 144 to 147 °C.

With `CNCC1CC(C)(O)c2ccc(S(=O)(=O)c3ccccc3)cc2O1` (stereo unspecified), the melting point was 164 to 165 °C.

In the case of `CONC(=O)c1ccc(CC(C)(C)C=O)cc1`, the melting point fell in the range of 126 to 128 °C.

For `NS(=O)(=O)c1ccc(NC(=O)CNc2ccccc2)c(Br)c1`, the melting point fell in the range of 179 to 181 °C.

`COC(=O)C(C)(C)CCCOc1cc(C)c(OCc2ccccc2)c(C)c1C` returned a melting point of 67 to 68 °C.

Compound `CCOC(=O)CSc1nc(Nc2ccc(OC)c(Cl)c2)cc(-c2ccccc2)n1` gave a melting point of 155 °C.

Compound `N#Cc1ccc(N2CCN(c3ccnc(Cl)n3)CC2)cc1` registered a melting point of 216 to 218 °C.

In turn, `O=C(O)c1ccc(C(=O)O)c2c(Br)cccc12` gave a melting point of 288 to 290 °C.

`CNC(=O)CC1CSc2c(C(=O)OC(C)C)ccn21` (stereo unspecified) showed a melting point of 117 to 119 °C.

In turn, `CCc1noc(-c2cn(-c3cccc(OCc4ccc(Cl)cc4)c3)cn2)n1` displayed a melting point of 137 to 138 °C.

`CC1(C)C(=O)Nc2cc3oc(-c4csnn4)nc3cc21` registered a melting point of over 250 °C.

In the case of `O=C(NCCO)c1cccc(-c2cccc3cc(OCc4cccc(C(F)(F)F)c4)nn23)c1`, the melting point fell in the range of 118 to 119 °C.

`CC(C)(C)OC(=O)COc1ccc(C(=O)O)cc1OCC(=O)OC(C)(C)C` displayed a melting point of 118 to 120 °C.

On to `O=c1oc(-c2cccc(OCc3ccccc3)c2)cc(O)c1SCCc1ccccc1`, for which the melting point lay in the range of 126 to 127 °C.

`CCOC(=O)C1CNc2ccc(C)cc2O1` (stereo unspecified) yielded a melting point of 90 to 92 °C.

`CCOc1cc(Cc2cnc(N)nc2N)cc(OCC)c1C(O)CS(C)(=O)=O` (stereo unspecified): the melting point was in the range of 205 to 206 °C.

In turn, `Cc1cc2ccc(CCCCCN3CCN(c4cccc(Cl)c4Cl)CC3)nc2[nH]c1=O` gave a melting point of 157 to 158 °C.

`CCc1ccc(-n2c(-c3cccnc3)nc(SC)c(C#N)c2=O)cc1`: the melting point fell in the range of 207 to 209 °C.

Take `NCC1Cc2cc(F)cc(-c3ccncc3)c2O1` (stereo unspecified): the melting point was in the range of 170 to 171 °C.

In turn, `COC(=O)c1cc(C(=O)c2ncc3ccc(N(C)C(=O)OC(C)(C)C)cn23)ccc1[N+](=O)[O-]` displayed a melting point of 55 °C.

`S=C1Nc2ccccc2Cn2nnnc21` came in with a melting point of 275 to 277 °C.

In the case of `COc1ccccc1-c1ccc2cnc(Nc3cccc(C4CCN(C)CC4)c3OC)nn12`, the melting point lay in the range of 74 to 89 °C.

Regarding `COc1cc(NS(=O)(=O)c2ccc3c(c2)CCN3C=O)cc(OC)c1OC`, the melting point was in the range of 200 to 201 °C.

`CN1CCC(=C2c3ccccc3C=C(Br)c3ccccc32)CC1` returned a melting point of 127 to 129 °C.

As for `Cc1ccc(S(=O)(=O)N2CCCC2c2cccnc2)cc1` (racemic), the melting point worked out at 112 °C.

`Nc1c(NCCCOc2cc(CN3CCCCC3)ccn2)c(=O)c1=O` displayed a melting point of 226 to 228 °C.

Regarding `CCOC(=O)c1cc2cccc(OCc3ccccc3)c2cc1O`, the melting point lay in the range of 98 to 115 °C.

In turn, `COc1ccc2c(c1)NC(=O)c1ccccc1O2` gave a melting point of 164 to 165 °C.

Turning to `COc1ccc2c(C(=O)N[C@H](Cc3ccc(C(F)(F)F)cc3)[C@@H](O)c3ccc(F)cc3)cccc2c1` (racemic), the melting point was 193 to 194 °C.

In the case of `CCOC(=O)c1ccc(NC(=S)NCCn2c(C)ccc2C)cc1`, the melting point lay within 155 to 156 °C.

In turn, `CCOc1c(Nc2ccc3[nH]cnc3c2)c(=O)c1=O` had a melting point of 243 to 244 °C.

Take `COc1cc(Nc2c(C#N)cnc3cc(/C=C/CCN4CCN(C)CC4)ccc23)c(Cl)cc1Cl`: the melting point lay in the range of 152 to 154 °C.

Consider `O=C(Nc1ccc(CN2C(=O)[C@H]3CCC[C@H]3N(C(=O)CN3C(=O)c4ccccc4C3=O)c3ccccc32)cc1)c1ccc(F)cc1` (relative stereo), for which the melting point was in the range of 244 to 246 °C.

`COc1ccc(Nc2nc(Cl)cc3ccccc23)cc1` showed a melting point of 101 °C.

Turning to `Cn1c(=O)c2c(ncn2CCN2CC=C(c3c[nH]c4ccccc34)CC2)n(C)c1=O`, the melting point came out at 196 °C.

Compound `COc1ccc(COc2c(C)c(C)c3c(c2C)C(c2ccc(N(C)C)cc2)C(C)(C)O3)cc1` (stereo unspecified) yielded a melting point of 105 to 107 °C.

In turn, `COc1ccc(CS[C@@H]2C[C@@H](C(=O)OCc3ccccc3)N(S(=O)(=O)c3ccc4ccccc4c3)C2)cc1` gave a melting point of 90 to 91 °C.

As to `CCCCCCCCCCCCCCCCNc1ccc(C(=O)NS(=O)(=O)c2ccc(C(C)(C)C)cc2)cc1`, the melting point fell in the range of 173 to 176 °C.

Take `CCOC1(C#N)NC(=O)C(=O)NC1(C#N)OCC` (stereo unspecified): the melting point fell in the range of 205 to 208 °C.
